Measurements: patent publication US20220341825A1, “CELL-COMPATIBLE TISSUE CLARIFYING COMPOSITION” (OSAKA UNIVERSITY, priority 2019, published 2022)
Marks after values point to notes of the source that are not given here.

Key:
human skin fibroblasts = assay: Cell survival rate after transparentization treatment (trypan blue); format: cell-based
Experimental: The cell survival rates in the transparentization using AMP, ADP, ATP, CMP, TMP, fructose, glucose, trehalose, sucrose, antipyrine, RapiClear 1.52, and poly A were examined. 1.0×10^5 human skin fibroblasts were seeded in a 24-well plate and cultured in DMEM medium. The next day, after washing with PBS, 100 μL of 100 wt % AMP aqueous solution, 100 wt % ADP aqueous solution, 100 wt % ATP aqueous solution, 100 wt % CMP aqueous solution, 100 wt % TMP aqueous solution, 100 wt % fructose aqueous solution, 100 wt % glucose aqueous solution, 100 wt % trehalose aqueous solution, 100 wt % sucrose aqueous solution, 100 wt % antipyrine aqueous solution, RapiClear 1.52 aqueous solution, or 25 wt % poly A aqueous solution was added, and the resultant was incubated at 37° C. for 30 minutes. Distilled water was added for a control. After the incubation, 0.1% trypsin was directly added, and the resultant was incubated for 5 minutes. Cell dissociation was confirmed, 3 mL of DMEM medium was added, and then the resultant was collected into a 15-mL centrifuge tube, and centrifuged (1000 rpm, 5 minutes, 20° C.). The supernatant was aspirated and 100 μL of DMEM medium was added. 10 μL was separated from the resultant and placed in an Eppendorf tube, and 10 μL of trypan blue solution was added thereto. Then, 10 μL was separated and the number of cells was counted with an automated cell counter.

[1] = tested on: collagen solution (sCMF, sonicated collagen microfiber); assay: Transparentizing ability in collagen model system (transmittance at 600 nm); settings: for transparentizing ability: screening in collagen (sCMF) solution; for transmittance: room temperature, 2 hours
Experimental: Since collagen is most abundant in biological tissue, a collagen solution was used as a model of the biological tissue to screen various compounds for their transparentizing ability. The outline of the screening experiment is as follows. Aqueous solutions of test compounds were added to multi-well plates containing aqueous solutions of sCMF (sonicated collagen microfiber) and allowed to stand at room temperature for a certain period of time, and subsequently, apparent transparency and transmittance at 600 nm were measured. 100 μL of 100 wt % AMP aqueous solution (refractive index: 1.43), 100 wt % CMP aqueous solution (refractive index: 1.42), 100 wt % TMP aqueous solution (refractive index: 1.41) or 25 wt % poly A aqueous solution (refractive index: 1.37) were added. The molecular weight of poly A was 100 to 500 kDa. Distilled water was added for a control. The resultant was allowed to stand at room temperature for 2 hours, and then the absorbance at 600 nm was measured with a plate reader (Synergy HTX). The obtained absorbance was substituted into an equation according to the Lambert-Beer formula to calculate the transmittance. 100 μL of 0.1 wt %, 0.5 wt %, 1 wt %, and 5 wt % sCMF aqueous solutions were placed in a 96-well plate, and 100 μL of 10 wt % (refractive index: 1.35), 25 wt % (refractive index: 1.38), 50 wt % (refractive index: 1.39), and 100 wt % (refractive index: 1.43) AMP aqueous solutions were added. After allowing the obtained samples to stand at room temperature for 2 hours, an absorbance at 600 nm was measured with a plate reader (Synergy HTX). The obtained absorbance was substituted into an equation according to the Lambert-Beer formula to calculate the transmittance.

[2] = Refractive index of aqueous solutions; format: physicochemical
[3] = tested on: three-dimensional tissue model (human skin fibroblasts, human umbilical vein endothelial cells); assay: Transparentization test (1) on fixed three-dimensional tissue model; format: cell-based; settings: 100 wt % AMP, 37° C., 30 minutes; paraformaldehyde-fixed tissue
Experimental: (1) A solution containing fibrinogen at a concentration of 2 mg/100 μL, CMF at a concentration of 6 mg/100 μL, and thrombin at a concentration of 1 unit/100 μL using DMEM was prepared.
(2) 1.0×10^5 of human skin fibroblasts, 5.0×10^4 of human umbilical vein endothelial cells, 18 μL of a mixed medium of DMEM and EGM-2, and 2 μL of a thrombin solution were placed in an Eppendorf tube to prepare a cell suspension.
(3) The fibrinogen solution prepared in (1) was combined with a CMF solution, and 40 μL from 200 μL in total of the resulting solution was taken out and added to the cell suspension prepared in (2).
(4) The cell suspension prepared in (3) was placed in a glass bottom dish to prepare a 30-μL drop.
(5) After the drop was incubated for 2 hours, 2 mL of a mixed medium of DMEM and EGM-2 was added.
(6) The drop was cultured at 37° C. for 1 week, washed with PBS, and then fixed with paraformaldehyde for 15 minutes.
(7) The fixed tissue was subjected to CD31 immunostaining and DAPI staining.
(8) A transparentization treatment was performed with 100 wt % AMP at 37° C. for 30 minutes.

[4] = tested on: living three-dimensional tissue model; assay: Transparentization test (2) on living three-dimensional tissue model, confocal observation; format: cell-based, human; settings: 60 wt % AMP, 30 minutes
Experimental: (§1) A transparentization was performed on a living three-dimensional tissue model. 60 wt % AMP was used as a transparentizing agent, and RapiClear 1.52 and 61 wt % fructose were used for comparison. The experimental procedure was the same as that of Example 4, except that the paraformaldehyde fixation described in step (6) was not performed.
The upper part of FIG. 5 is images immediately before the treatment (0 minutes), in which the left panel is an image observed in a direction perpendicular to the dish, and the right panel is an image observed in a direction horizontal to the dish. The lower part of FIG. 5 is images immediately after the treatment (30 minutes), in which the left panel is an image observed in a direction perpendicular to the dish, and the right panel is an image observed in a direction horizontal to the dish. By the transparentization treatment with AMP, the central portion of the tissue was seen so that the deep part up to 200 μm could be observed.

[5] = tested on: living three-dimensional tissue model; assay: Cell survival rate in living three-dimensional tissue model (trypan blue); format: cell-based, human
Experimental: as §1
Further after 30, 60, and 90 minutes of the transparentization treatment in the same experimental system as described above, the tissue was disintegrated with proteinase K and collagenase (1:1) and subjected to trypan blue staining to count the number of viable cells. […] The transparentization treatment with AMP had no significant effect on the cell survival rate (a cell survival rate of 92%). […] The cell survival rate was as high as 92% and 90% after the 30-minute and 60-minute transparentization treatments, respectively. It was confirmed that a significant number of cells survived even after the 90-minute transparentization treatment (a cell survival rate of 45%).

[6] = human skin fibroblasts, 100 wt % aqueous solutions (RapiClear 1.52 aqueous solution), 37° C., 30 minutes, n = 3
[7] = 600 nm, 100 wt % aqueous solution added to sCMF solution

Row | refractive index ([2]; 100 wt % aqueous solution) | Molecule | Survival rate (%) (human skin fibroblasts; human, 30 min, 100 wt %) | transparentizing ability [1] | Survival rate (%) (human skin fibroblasts; [6]) | transmittance [1, 7] | further results
1 | – | OC[C@H]1O[C@@](CO)(O[C@H]2O[C@H](CO)[C@@H](O)[C@H](O)[C@H]2O)[C@@H](O)[C@@H]1O [Sucrose, sucrose, reference compound] | 14% | – | – | – | –
2 | – | Nc1ncnc2c1ncn2[C@@H]1O[C@H](COP(=O)(O)OP(=O)(O)OP(=O)(O)O)[C@@H](O)[C@H]1O [ATP, adenosine triphosphate] | – | high transparentizing ability | 26% | – | cell survival rate (in words) (human skin fibroblasts; ATP transparentization treatment): low
3 | – | OC[C@H]1O[C@H](O[C@H]2O[C@H](CO)[C@@H](O)[C@H](O)[C@H]2O)[C@H](O)[C@@H](O)[C@@H]1O [Trehalose, trehalose, reference compound] | 25% | – | – | – | –
4 | 1.41 | Cc1cn([C@@H]2O[C@H](COP(=O)(O)O)[C@@H](O)[C@H]2O)c(=O)[nH]c1=O [TMP, 5-methyluridine monophosphate] | 42% | high transparentizing ability | – | 31.6% | –
5 | – | Cc1cc(=O)n(-c2ccccc2)n1C [Antipyrine, antipyrine, reference compound] | – | – | 33% | – | –
6 | 1.42 | Nc1ccn([C@@H]2O[C@H](COP(=O)(O)O)[C@@H](O)[C@H]2O)c(=O)n1 [CMP, cytidine monophosphate] | 53% | high transparentizing ability | – | 45.2% | –
7 | 1.43 | Nc1ncnc2c1ncn2[C@@H]1O[C@H](COP(=O)(O)O)[C@@H](O)[C@H]1O [AMP, adenosine monophosphate] | 92* % | high transparentizing ability | – | 75.6% | effect of AMP concentration on transmittance ([1]; 10-100 wt % AMP, 0.1-5 wt % sCMF, 600 nm, 2 hours room temperature): as the AMP concentration was higher, the transmittance was higher; refractive index ([2]; 10 wt % aqueous solution): 1.35; refractive index ([2]; 25 wt % aqueous solution): 1.38; refractive index ([2]; 50 wt % aqueous solution): 1.39; transparentization of tissue (naked eye) [3]: completely transparentized; observable depth of tissue [4]: up to 200 μm; cell survival rate ([5]; human, 30 min): 92%; cell survival rate ([5]; human, 60 min, 60 wt %): 90%; cell survival rate ([5]; human, 90 min, 60 wt %): 45%
8 | – | Nc1ncnc2c1ncn2[C@@H]1O[C@H](COP(=O)(O)OP(=O)(O)O)[C@@H](O)[C@H]1O [ADP, adenosine diphosphate] | 87* % | high transparentizing ability | – | – | –
9 | – | poly A | – | high transparentizing ability | – | – | transmittance ([1]; 600 nm, 25 wt % aqueous solution added to sCMF solution): 69.0%; effect on the survival rate (in words) (human skin fibroblasts): little effect on the survival rate; refractive index ([2]; 25 wt % aqueous solution): 1.37
10 | – | O=C(CO)[C@@H](O)[C@H](O)[C@H](O)CO [Fructose, fructose, reference compound] | – | – | 6% | – | cell survival rate ([5]; 30 minutes of treatment, 60 wt % AMP, RapiClear 1.52, 61 wt % fructose): 22%
